Tested on: OPN
Test: Quantitative IHC of cerebral OPN expression in ADtg mice
Type: in vivo, mouse
Procedure: ADtg mice (10 months old) received subcutaneous injections of GA [also known as Cop-1 and Copaxone®; 100 μg in phosphate-buffered saline (PBS)] or PBS alone (control group) twice a week for 1 week and then once a week for 8 weeks. For evaluation of innate immune infiltration to the brain by flow cytometry, 10-month-old ADtg mice received subcutaneous injections of GA ([…] in PBS) or PBS alone twice a week for 1 week and then once a week for 3 weeks. At the end of the study, all mice were anaesthetized and then perfused with ice-cold PBS with 0.5 mM EDTA, after which their organs were collected and analyzed or fixed in 2.5% paraformaldehyde (Sigma-Aldrich), and cryoprotected with 30% sucrose for further histological analysis. CD115^+ monocytes from mice donors were isolated as previously reported (Koronyo et al., Brain: a journal of neurology 2015,138:2399-2422). […] For microscopic analysis, we used a Carl Zeiss Axio Imager Z1 fluorescence microscope equipped with ApoTome (Carl Zeiss MicroImaging, Inc.). […] The number and area (μm^2) of OPN+ cells, Iba1^+CD45^hi cells, GFAP^+ cells, Thio-S^+ amyloid-βplaques and 4G8^+ amyloid-βplaques were determined by examining four to six coronal sections per mouse at 150-μm intervals over an area covering both the hippocampal and cortical (including entorhinal and cingulate cortex) regions. […]

Substance: glatiramer acetate [GA]
- cerebral OPN expression in comparison to PBS controls (quantitative IHC, symptomatic ADtg mice, 2 months treatment (FIG. 11B)): 1.5 times
- increase in total OPN expression per Aβ-plaque area (ratio of total OPN area to plaque area, total brain regions (FIG. 11D)): 2.6 fold

From patent US11779600B2, “Methods of treating or preventing alzheimer's disease and associated conditions” (CEDARS-SINAI MEDICAL CENTER, priority 2016, dated 2023)
